Measurements reported in publication PMC4124033 (Journal of molecular neuroscience : MN, 2010).

What was measured:
[1] = target: T1, monoacylglycerol lipase (MAGL) (Homo sapiens, UniProt Q99685); format: biochemical
T1 sequence (Q99685 1-303): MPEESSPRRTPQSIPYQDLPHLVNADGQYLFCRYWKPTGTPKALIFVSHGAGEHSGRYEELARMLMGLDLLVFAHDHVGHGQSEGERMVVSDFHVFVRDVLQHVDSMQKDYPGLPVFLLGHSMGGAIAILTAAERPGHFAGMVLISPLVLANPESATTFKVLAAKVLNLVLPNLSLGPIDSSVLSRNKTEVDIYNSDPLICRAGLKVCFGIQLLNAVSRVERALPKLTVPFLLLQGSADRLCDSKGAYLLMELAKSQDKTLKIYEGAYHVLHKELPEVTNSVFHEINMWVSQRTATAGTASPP

[2] = target: T2, fatty acid amide hydrolase (FAAH) (Rattus norvegicus, UniProt P97612); format: biochemical
T2 sequence (P97612 1-579): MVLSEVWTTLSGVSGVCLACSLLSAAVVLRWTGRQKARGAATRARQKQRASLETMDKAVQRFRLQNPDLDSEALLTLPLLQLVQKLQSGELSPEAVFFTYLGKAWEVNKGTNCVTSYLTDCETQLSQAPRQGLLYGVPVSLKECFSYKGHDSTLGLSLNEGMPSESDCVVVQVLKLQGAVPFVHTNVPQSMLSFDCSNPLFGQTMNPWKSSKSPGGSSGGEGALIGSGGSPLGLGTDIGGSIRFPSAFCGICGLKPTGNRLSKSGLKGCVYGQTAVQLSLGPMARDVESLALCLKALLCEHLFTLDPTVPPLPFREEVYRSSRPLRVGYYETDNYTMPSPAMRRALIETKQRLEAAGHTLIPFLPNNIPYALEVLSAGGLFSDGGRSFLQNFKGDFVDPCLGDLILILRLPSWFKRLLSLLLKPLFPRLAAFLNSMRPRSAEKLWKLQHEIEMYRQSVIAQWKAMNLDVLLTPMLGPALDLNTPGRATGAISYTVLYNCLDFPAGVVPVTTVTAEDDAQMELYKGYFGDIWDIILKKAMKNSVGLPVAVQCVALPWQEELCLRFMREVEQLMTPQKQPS

IC50 [1]: 15.1 µM | IC50 [2]: 0.042 ± 0.006 µM
Substance: AM5206
